This note sets out measurements from paper PMC10980263, “Cryo-EM structures of the human NaS1 and NaDC1 transporters revealed the elevator transport and allosteric regulation mechanism” (Science Advances, 2024).

The target of assay [1] is T1, NaDC1 (Homo sapiens, UniProt Q13183, N476A).
T1 construct: gene SLC13A2; full length, homodimer; N-terminal FLAG purified from HEK293F (structures, natural variant I550V); GFP and FLAG tagged in HEK293T for currents
T1 sequence (Q13183 1-592 N476A): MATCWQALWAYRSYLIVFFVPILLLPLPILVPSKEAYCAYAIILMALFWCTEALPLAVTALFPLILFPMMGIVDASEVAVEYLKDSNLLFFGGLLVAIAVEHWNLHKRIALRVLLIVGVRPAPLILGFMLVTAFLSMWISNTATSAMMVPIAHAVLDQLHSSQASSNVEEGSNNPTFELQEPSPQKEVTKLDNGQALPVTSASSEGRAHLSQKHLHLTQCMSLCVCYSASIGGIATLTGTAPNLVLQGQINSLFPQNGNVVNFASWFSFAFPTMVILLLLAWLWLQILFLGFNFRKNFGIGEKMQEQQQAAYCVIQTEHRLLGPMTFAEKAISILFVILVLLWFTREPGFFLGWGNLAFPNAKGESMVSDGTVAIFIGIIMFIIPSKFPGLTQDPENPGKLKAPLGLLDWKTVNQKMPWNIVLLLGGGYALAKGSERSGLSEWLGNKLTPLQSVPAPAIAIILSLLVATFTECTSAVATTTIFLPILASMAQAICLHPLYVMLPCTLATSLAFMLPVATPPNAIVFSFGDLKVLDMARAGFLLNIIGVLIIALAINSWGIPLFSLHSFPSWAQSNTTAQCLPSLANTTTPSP
Kind of assay: CD thermal melting at […] nm. Type of assay: binding. To be noted: absolute Tm in presence of citrate, not a shift.

Assay [2] addresses T2, NaDC1 (Homo sapiens, UniProt Q13183, R108A).
T2 construct: gene SLC13A2; full length, homodimer; N-terminal FLAG purified from HEK293F (structures, natural variant I550V); GFP and FLAG tagged in HEK293T for currents
T2 sequence (Q13183 1-592 R108A): T1 sequence (Q13183 1-592 N476A) with R108A, A476N
Kind of assay: whole-cell patch clamp, transfected HEK293T. The class given is cell-based. To be noted: citrate-induced current; 140 mM NaCl bath, pH 7.4. In general terms: Patch clamp records ionic current or voltage across a cell membrane.

The target in assay [3] is T3, NaDC1 (Homo sapiens, UniProt Q13183, N141A).
T3 construct: gene SLC13A2; full length, homodimer; N-terminal FLAG purified from HEK293F (structures, natural variant I550V); GFP and FLAG tagged in HEK293T for currents
T3 sequence (Q13183 1-592 N141A): T1 sequence (Q13183 1-592 N476A) with N141A, A476N
Kind of assay: CD thermal melting at […] nm. Type of assay: binding. To be noted: absolute Tm in presence of citrate, not a shift.

Numbering of substitutions follows the chain as printed.

On to `O=C(O)CC(O)(CC(=O)O)C(=O)O` [citrate], for which the Tm at NaDC1 [1] amounted to 60.5 ± 0.7 °C; on NaDC1 [3] it was 61.3 ± 0.5 °C. Besides, the “whole-cell patch clamp, transfected HEK293T” value on NaDC1 [2] is reported as “The R108A mutant substantially reduced the citrate-induced current than WT in NaDC1”.
